# Experimental data published in patent US5380729A, “12-hetero substituted 6,11-ethano-6,11-dihydrobenzo (b) quinolizinium salts and compositions and method of use thereof” (Sterling Winthrop Inc., priority 1993, dated 1995).
# Test system: PCP recognition sites
# Assay: [3H]TCP Radioreceptor Assay (internal screen)
# Type: binding, rat (male Sprague-Dawley
# Details: @ 10 μM; rat whole brain membranes; room temperature, 25 min
# Description: [^3 H]TCP Radioreceptor Assay (internal screen)
# [^3 H]TCP binding to PCP recognition sites was performed as described by Vignon et al. Brain Research 1983, 280, 194°197. Male Sprague-Dawley rats were sacrificed by decapitation, and whole brains were homogenized in 10 volumes (wt/vol) of cold Tris-HCl buffer (50 mM, pH 7.7) using a Brinkmann Polytron (setting 6, 30 sec). The homogenate was centrifuged at 40,000×g for 10 min at 4° C. The supernatant was decanted, and the homogenization and centrifugation steps were repeated twice as described above. Following this, the pellet was resuspended in Tris-HCl (5 mM, pH 7.7) at a tissue concentration of 0.5°0.75 g/ml, and one ml aliquots were frozen at -70° C. until use. The binding characteristics for PCP recognition sites were not altered by the freezing of membrane suspensions.
# On the day of the assay, membrane aliquots were thawed, resuspended in fresh 5 mM Tris-HCl buffer at a tissue concentration of 1 mg/ml, and stored on ice until use. Each assay tube contained 100 μl of [^3 H]TCP at a final concentration of approximately 1 nM, 100 μl of various concentrations of the compounds of interest, 500 μl of the tissue suspension and 300 of buffer to a final assay volume of 1 ml and a final protein concentration of 0.5 mg/tube. Non-specific binding was defined by addition of a final concentration of 100 μM PCP to blank tubes. All tubes were incubated at room temperature for 25 min before termination of the reaction by rapid filtration over Whatman GF/B glass fiber filters that had been presoaked in a solution of 0.5% polyethylenimine for at least 1 hr prior to use. Filters were washed with three 4 ml volumes of cold Tris buffer. Following addition of scintillation cocktail, the amount of bound radioactivity was determined by liquid scintillation spectrometry using a Beckman LS 5000TA liquid scintillation counter with an efficiency for tritium of approximately 55% . Inhibition constants (Ki values) were calculated using the EBDA/LIGAND program (McPherson, J. Pharmacol. Meth. 1985, 14, 213-228), purchased from Elsevier/Biosoft, Inc. Results are reported as Ki values or as a percent (%) inhibition of binding at 10
row,Molecule,"Percent inhibition, [3H]TCP (internal screen)"
1,"CC1(C)C2c3ccccc3C(c3cccc[n+]32)C12O[C@H](COCc1ccccc1)[C@@H](COCc1ccccc1)O2 (stereo partly drawn) [Example 9, 12,12-(1R,2R-dibenzyloxymethyl-ethanediolketal)-13,13-dimethyl-6,11-ethano-6,11-dihydrobenzo[b]quinolizinium perchlorate]",11%

# Same assay, conditions: rat whole brain membranes; ~1 nM [3H]TCP; room temperature, 25 min
row,Molecule,Ki
1,"12,12-Diethylamino-13-phenyl-6,11-ethano-6,11-dihydrobenzo[b]quinolizinium perchlorate [63(j)]",14400 nM
2,"CCOC1(OCC)C2c3ccccc3C([n+]3ccccc32)C1(C)C (single isomer, unassigned) [7(b), 12,12-diethoxy-13,13-dimethyl-6,11-ethano-6,11-dihydrobenzo[b]quinolizinium·-[(-)-DBT]]",14.1 nM
3,"CCOC1(OCC)C2c3cc(OC)ccc3C([n+]3ccccc32)C1(C)C (single isomer, unassigned) [20(c), 9-methoxy-12,12-diethoxy-13,13-dimethyl-6,11-ethano-6,11-dihydrobenzo[b]quinolizinium chloride]",7.05 nM
4,"C[C@@H]1C[C@@H](C)OC2(O1)C1c3ccccc3C([n+]3ccccc31)C2(C)C (single isomer, unassigned) [Example 10(b)]",614 nM
5,"C[C@@H]1C[C@@H](C)OC2(O1)C1c3ccccc3C([n+]3ccccc31)C2(C)C (single isomer, unassigned) [Example 10(c)]",365 nM
6,"CCOC1(OCC)C2c3ccccc3C(C1Cl)[n+]1ccccc12 (single isomer, unassigned) [Example 42, 6,11-ethano-12,12-diethoxy-13-chloroquinolizinium perchlorate]",319 nM
7,"CCOC1C2c3ccccc3C([n+]3ccccc32)C1(C)C (single isomer, unassigned) [Example 49, 6,11-ethano-12-ethoxy-13,13-dimethyl-6,11-dihydrorbenzo[b]quinolizinium perchlorate]",515 nM
8,"CCN(CC)C1C2c3ccccc3C(C1C)[n+]1ccccc12 (single isomer, unassigned) [Example 61, 6,11-ethano-12-(diethyl) amino-13-methyl-6,11-dihydrobenzo[b]quinolizinium diperchlorate]",5420 nM
9,"CCOC1(OCC)C2c3c(OC(C)=O)cccc3C([n+]3ccccc32)C1(C)C.[O-][Cl+3]([O-])([O-])[O-] (stereo not drawn) [15(a), 10-acetoxy-12,12-diethoxy-13,13-dimethyl-6,11-ethano-6,11-dihydrobenzo[b]quinolizinium perchlorate]",26.4 nM
10,"CCOC1(OCC)C2c3c(O)cccc3C([n+]3ccccc32)C1(C)C.[O-][Cl+3]([O-])([O-])[O-] (stereo not drawn) [15(b), 10-hydroxy-12,12-diethoxy-13,13-dimethyl-6,11-ethano-6,11-dihydrobenzo[b]quinolizinium perchlorate]",7.87 nM
11,"CCOC1(OCC)C2c3c(O)cccc3C([n+]3ccccc32)C1(C)C (stereo not drawn) [15(c), 10-hydroxy-12,12-diethoxy-13,13-dimethyl-6,11-ethano-6,11-dihydrobenzo[b]quinolizinium chloride]",6.9 nM
12,"CCOC1(OCC)C2c3ccccc3C([n+]3ccccc32)C1(CC)CC (stereo not drawn) [17(c), 12,12-diethoxy-13,13-diethyl-6,11-ethano-6,11-dihydrobenzo[b]quinoliziniumperchlorate]",10.6 nM
13,"CCOC1(OCC)C2c3c(OC)cccc3C([n+]3ccccc32)C1(C)C (stereo not drawn) [19(b), 10-methoxy-12,12-diethoxy-13-13-dimethyl-6,11-ethano-6,11-dihydrobenzo[b]quinolizinium perchlorate]",13.2 nM
14,"CC1(C)C2c3ccccc3C(c3cccc[n+]32)C12OCCCO2 (stereo not drawn) [22(b), 6,11-ethano-12,12-(1,3-propanediolketal)-13,13-dimethyl-6,11-dihydrobenzo[b]quinolizinium chloride]",3300 nM
15,"CCOC1(OCC)C2c3cc(C(F)(F)F)ccc3C([n+]3ccccc32)C1(C)C (stereo not drawn) [23(b), 6,11-ethano-12,12-diethoxy-13,13-dimethyl-9-trifluoromethyl-6,11-dihydrobenzo[b]quinolizinium chloride]",407 nM
16,"CCOC1(OCC)C2c3c(F)cc(F)cc3C([n+]3ccccc32)C1(C)C (stereo not drawn) [24(b), 6,11-ethano-12,12-diethoxy-13,13-dimethyl-8,10-difluoro-6,11-dihydrobenzo-[b]quinolizinium chloride]",272 nM

row,Molecule,Ki
1,"CCOC1(OCC)C2c3ccc(OC)cc3C([n+]3ccccc32)C1(C)C (stereo not drawn) [25(b), 6,11-ethano-12,12-diethoxy-13,13-dimethyl-8-methoxy-6,11-dihydrobenzo[b]quinolizinium chloride]",147 nM
2,"CCOC1(OCC)C2c3ccccc3C([n+]3c(C)cccc32)C1(C)C (stereo not drawn) [27(b), 6,11-ethano-12,12-diethoxy-13,13-dimethyl-4-methyl-6,11-dihydrobenzo[b]quinolizinium chloride]",314 nM
3,"CCOC1(OCC)C2c3c(OC(C)C)cccc3C([n+]3ccccc32)C1(C)C (stereo not drawn) [34(b), 6,11-ethano-12,12-diethoxy-13,13-dimethyl-10-isopropoxy-6,11-dihydrobenzo[b]quinolizinium chloride]",47.5 nM
4,"CCOC1(OCC)CC2c3ccccc3C1c1cccc[n+]12 (stereo not drawn) [63(a), 12,12-Diethoxy-6,11-ethano-6,11-dihydrobenzo[b]quinolizinium bromide]",3590 nM
5,"CCOC1(OCC)C2c3ccccc3C(C1C)[n+]1ccccc12.[O-][Cl+3]([O-])([O-])[O-] (stereo not drawn) [63(d), 12,12-Diethoxy-13-methyl-6,11-ethano-6,11-dihydrobenzo[b]quinolizinium perchlorate]",49.3 nM
6,"CCOC1(OCC)C2c3cccc(C)c3C(C1C)[n+]1ccccc12.[O-][Cl+3]([O-])([O-])[O-] (stereo not drawn) [63(k), 7-Methyl-12,12-diethoxy-13-methyl-6,11-ethano-6,11-dihydrobenzo[b]quinolizinium perchlorate]",2460 nM
7,"CCOC1(OCC)C(C)C2c3ccccc3C1(C)c1cccc[n+]12.[O-][Cl+3]([O-])([O-])[O-] (stereo not drawn) [63(l), 11-Methyl-12,12-diethoxy-13-methyl-6,11-ethano-6,11-dihydrobenzo[b]quinolizinium perchlorate]",39.3 nM
8,"COC1(OC)C2c3ccccc3C([n+]3ccccc32)C1(C)C.[O-][Cl+3]([O-])([O-])[O-] (stereo not drawn) [63(m), 12,12-dimethoxy-13,13-dimethyl-6,11-ethano-6,11-dihydrobenzo[b]quinolizinium perchlorate]",111 nM
9,"CCOC1(OCC)C2c3ccccc3C([n+]3ccccc32)C1(C)C (stereo not drawn) [Example 3, 12,12-diethoxy-13,13-dimethyl-6,11-ethano-6,11-dihydrobenzo[b]quinolizinium hexafluorophosphate]",5.56 nM
10,"CCOC1(OCC)C2c3ccccc3C([n+]3ccccc32)C1(C)C (stereo not drawn) [Example 4, 12,12-diethoxy-13,13-dimethyl-6,11-ethano-6,11-dihydrobenzo[b]quinolizinium camphanate]",5.66 nM
11,"CCOC1(OCC)C2c3ccccc3C([n+]3ccccc32)C1(C)C [Example 5, 12,12-diethoxy-13,13-dimethyl-6,11-ethano-6,11-dihydrobenzo[b]quinolizinium (S)-(+)-CH3 C(Ph)(OH)CO2^-]",5.25 nM
12,"CCOC1(OCC)C2c3ccccc3C([n+]3ccccc32)C1(OCC)OCC (stereo not drawn) [Example 8, 12,12,13,13,-tetraethoxy-6,11-ethane-6,11-dihydrobenzo[b]quinolizinium perchlorate]",5180 nM
13,"CCOC1(OCC)C2c3cccc(OC)c3C([n+]3ccccc32)C1(C)C (stereo not drawn) [Example 16, 7-methoxy-12,12-diethoxy-13,13-dimethyl-6,11-ethano-6,11-dihydrobenzo[b]quinolizinium hexafluorophosphate]",1870 nM
14,"CC1(C)C2c3ccccc3C(c3cccc[n+]32)C12OCCO2 (stereo not drawn) [Example 18, 12,..12-(1; 2-ethanediolketal)-13,13-dimethyl-6,11-ethano-6,11-dihydrobenzo[b]quinolizinium perchlorate]",4000 nM
15,"CCOC1(OCC)C2c3cc(Cl)ccc3C([n+]3ccccc32)C1(C)C.[O-][Cl+3]([O-])([O-])[O-] (stereo not drawn) [Example 26, 6,11-ethano-12,12-diethoxy-13,13-dimethyl-9-chloro-6,11-dihydrobenzo[b]quinolizinium perchlorate]",12.4 nM

# Same assay, conditions: rat whole brain membranes; ~1 nM [3H]TCP; room temperature, 25 min; hydrate
row,Molecule,Ki
1,"C[C@@H]1C[C@@H](C)OC2(O1)C1c3ccccc3C([n+]3ccccc31)C2(C)C (stereo partly drawn) [Example 11, 12,12-(2R,4R-pentanediolketal)-13,13-dimethyl-6,11-ethano-6,11-dihydrobenzo[b]-quinolizinium chloride·1/2 hydrate]",497 nM
